From patent US10413535B2, “Pharmaceutical compositions comprising an integrin ALPHA4 antagonist for use in treating ocular inflammatory conditions” (AXEROVISION, INC., priority 2015, dated 2019)

What was measured:
[1] = tested on: cells of draining cervical lymph nodes; assay: Flow cytometry of draining cervical lymph nodes, desiccating stress 1 day; type: in vivo, mouse; settings: 1 day DS
Method: (§1) Female C57BL/6 mice, aged 6 to 8 weeks, were subjected to DS for 5 days (DS5) as described previously (de Paiva et al., 2006b; Niederkorn et al., 2006). Topical bilateral treatment with 1 eye drop per eye (2 μL volume) or subcutaneous injection (4 μL volume), 2 times per day, was initiated on day 1 concurrently with DS and continued through day 4. Treatment with the compound of formula I or dexamethasone phosphate 0.1% was compared to correspondingly treated vehicle controls. Mice were randomized to receive one of the test articles. Control mice were kept in a non-stressed (NS) environment maintained at 50-75% relative humidity without exposure to airflow or scopolamine and were not treated with test or control article. Treatment effects were assessed on corneal staining with Oregon Green Dextran (OGD); expression of inflammatory markers in ocular surface tissues by real time PCR; cell population analysis in draining cervical lymph nodes by FACS analysis; conjunctival T cell infiltration by immunohistochemistry.
Cervical draining lymph nodes (CLN) were surgically excised, placed in a round culture plate with ˜8 mL of complete RPMI media and smashed between two frosted slides.
Single-cell suspensions of CLN from C57BL/6 mice, treated under DS conditions for 1 day, were prepared, centrifuged and sequentially filtered, as previously described (de Paiva et al., 2009a). Subsequently 1.0 mL of ACT solution was added for 30 seconds followed by 2.0 mL of complete RPMI. The cells were once again centrifuged and the supernatant aspirated. Cells were then re-suspended in 2.0 mL of complete RPMI and prepared for counting. Ten μL of Trypan Blue were used for counting and the cells were divided in tubes at 1×10^6 cells/mL. Subsequently, the cells were incubated on ice in 20 μL unconjugated anti-mouse CD16/CD32 (BD Pharmingen, San Diego, Calif.) followed by 80 μL of directly conjugated primary antibody or isotype. Finally the samples were washed with 1 mL PBS/1% FBS, centrifuged and re-suspend in 0.3 mL PBS/1% FBS containing 1:1000 of PI. The samples were stored at 4° C. until the analysis was performed with an A BD LSRII Benchtop cytometer. The data was analysed using BD Diva Software (BD Pharmingen) and FlowJo (TreeStar Inc).
Due to skewed distribution of OGD data, the analysis was done on the log 10 scale to make the data more normally distributed. Log 10 OGD data was averaged across two observers and the left and right eyes. The mixed effects ANOVA model included treatment group as a fixed effect and week as a random effect. 95% and 99% confidence intervals were constructed for the disease (5 day DS vs untreated group kept in separate vivarium) and compound treatment effects (treatment vs vehicle). As these comparisons were all pre-planned (comparing each treatment to its vehicle group), no adjustment was made for multiplicity. Log 10 scale treatment effect estimates and confidence limits were converted back to the original OGD scale, thus representing the estimate for the ratio of group geometric means and their confidence limits. For gene expression analysis, an unpaired T test was performed to compare drug and vehicle treatment. For flow cytometry analysis, a 2-way ANOVA with fixed treatment and random experiment effects was employed to test the treatment differences. The analysis was followed by Dunnett's multiple comparison procedure to compare each of the treatment groups with the vehicle group. T cell density was calculated for each section and averaged across sections for each animal. As the distribution of average cell density data was non-normal, it was analyzed by using non-parametric methods (Kruskal-Wallis procedure, followed by Dunn's multiple comparisons technique).
The draining CLN are an integral part of the immune cycle in DED (Pflugfelder et al., 2008; Schaumburg et al., 2011). […]

[2] = tested on: C57BL/6 mice subjected to desiccating stress; assay: Corneal OGD staining in murine desiccating stress model; type: in vivo, mouse; settings: topical bilateral 2 times per day, 5 days DS, vs vehicle (GW559090 1-30 mg/mL; Dex 0.1%)
Method: as §1
On the morning of the 5th day, mice received one s.c. dose of scopolamine. Two hours later corneal staining was assessed using Oregon Green Dextran (OGD-488), which is a conjugated fluorescent dye of a 70 kDa molecular size (Invitrogen-Molecular Probes) as previously described (de Paiva et al., 2006b). The procedure consisted of instillation of 0.5 μL of OGD on the cornea using a glass capillary pipette, 1 minute before euthanasia. Mice were euthanized by inhalation of isoflurane gas followed by cervical dislocation. Eyes were then rinsed with 2 mL of BSS. Excess liquid was carefully blotted from the ocular surface with filter papers without touching the cornea. Digital pictures of both eyes were taken under 470 nm excitation and 488 nm emission wave lengths using a Nikon SMZ-1500 stereo microscope, with an exposure time of 2 seconds. Both eyes from each animal were evaluated; the right eye always first followed by the left eye. The mean intensity in the central cornea was evaluated from digital images using NIS Elements (version 3.0) by placing a fixed region of interest (a 2-mm diameter circle) on the central cornea. The mean intensity of the fluorescence was read by the software and stored in a database (Excel, Microsoft). This fluorescence measurement in the central ring was done independently by 2 masked observers, for each mouse eye. By the conclusion of the experiment, results were averaged from both observers using all data collected during all study weeks (Excel, Microsoft). Results are presented as geometric mean±95% confidence interval of gray levels.
Due to skewed distribution of OGD data, the analysis was done on the log 10 scale to make the data more normally distributed. Log 10 OGD data was averaged across two observers and the left and right eyes. The mixed effects ANOVA model included treatment group as a fixed effect and week as a random effect. 95% and 99% confidence intervals were constructed for the disease (5 day DS vs untreated group kept in separate vivarium) and compound treatment effects (treatment vs vehicle). As these comparisons were all pre-planned (comparing each treatment to its vehicle group), no adjustment was made for multiplicity. […] T cell density was calculated for each section and averaged across sections for each animal. […]

dry eye patients = settings: delivered topically; cited from earlier work
[3] = tested on: multiple sclerosis and Crohn's disease; settings: in vivo; cited from earlier work
[4] = topical treatment, vs vehicle (GW559090 30 mg/mL, 60 μg per eye; Dex 0.1%), listed as dexamethasone

**Q.** With `C[C@@H]1C[C@H]2[C@@H]3CCC4=CC(=O)C=C[C@]4(C)[C@@]3(F)[C@@H](O)C[C@]2(C)[C@@]1(O)C(=O)COP(=O)(O)O` [Dex, Dexamethasone phosphate, reference compound] as the compound, how does the “CD4+ and CD8+ T cells in draining lymph nodes” value [1] read?
**A.** nor did treatment with the compound of formula I or dexamethasone decrease the number of T cells

**Q.** What about the “CD11c+ dendritic cells in draining cervical lymph nodes” value [1, 4] of the same compound?
**A.** no significant effect

**Q.** What about the “CD11c+/MHC II+ dendritic cells in draining cervical lymph nodes” value [1, 4] of the same compound?
**A.** no significant effect

**Q.** And the “CD11c+ dendritic cells in draining cervical lymph nodes” value ([1]; topical treatment, vs vehicle (GW559090 30 mg/mL, 60 μg per eye; Dex 0.1%), listed as dexamethasone phosphate)?
**A.** Neither systemic treatment with the compound of formula I nor topical treatment with dexamethasone phosphate produced the same effect

**Q.** What about the “OGD intensity score (corneal staining / corneal barrier disruption)” value [2] of the same compound?
**A.** significantly improved

**Q.** And the “OGD intensity score (corneal staining / corneal barrier disruption)” value ([2]; listed as dexamethasone)?
**A.** decreased

**Q.** What does the source list for `CS(=O)(=O)c1cccc(C[C@H](NC(=O)c2c(Cl)cc3c(c2Cl)CCN(C(=O)c2ccc4ccoc4c2)C3)C(=O)O)c1` [Lifitegrast, (2S)-2-[[2-(1-benzofuran-6-carbonyl)-5,7-dichloro-3,4-dihydro-1H-isoquinoline-6-carbonyl]amino]-3-(3-methylsulfonylphenyl)propanoic acid]?
**A.** Corneal staining (dry eye patients): reduce; Symptoms (dry eye patients): improve

**Q.** Which “Inflammation and clinical outcomes” value [3] does the source give for “Natalizumab: an antibody directed against the integrin α4 subunit” here?
**A.** profoundly inhibit inflammation and improve clinical outcomes
